Results: US20250374924A1, “ACTIVE MOLECULES IN THE SECRETOME OF PSEUDOMONAS PROTEGENS PBL3” (Board of Regents of the University of Nebraska, priority 2024, published 2025)
“Also recorded” adds a separate entry of the source.

Key:
[1] = tested on: rifampicin-resistant strain of B. glumae; assay: Antimicrobial assay in planta: rice panicles pre-treated with compound, then spray-inoculated with B. glumae (BPB symptoms, bacterial populations); assay type: in vivo, Burkholderia glumae; settings: 3 dpi; for reduction of B. glumae populations in rice panicles: pre-treated with 500 μg/mL, vs water pre-treated inoculated panicles, FIG. 4B; for BPB symptoms in rice panicles (in words): rice Kitaake panicles pre-treated with 500 μg/mL, water pre-treated, inoculated panicles exhibited the highest levels of BPB symptoms, FIG. 4A
Burkholderia glumae = assay: Antimicrobial assay in vitro: growth of B. glumae in KB broth (OD600 after 18 hours); settings: for minimum inhibitory concentration needed for reduction of B. glumae growth in vitro: concentrations tested 1000, 100, 10 μg/mL; for growth of B. glumae (in words): concentrations ranging from 10 μg/mL to 1000 μg/mL
Protocol: A single colony of P. protegens PBL3 was grown in 1×M9 minimal media (Sigma Aldrich, St. Louis, MO) supplemented with filter-sterilized 56 mM Myo-inositol, 2 mM MgSO4·7H2O, and 0.2 mM CaCl2). The culture was incubated at 25° C. with constant agitation (210 rpm) for 60 hours until reaching an optical density at 600 nm (OD600) of 0.5. Bacterial culture was centrifuged at 10,000 rpm for 10 minutes. The bacterial pellet was discarded and the supernatant, containing the secreted fraction (secretome) was transferred to a new tube and filter-sterilized using a 0.22 μm filter (Fisher Scientific, Ireland) to eliminate any residual bacterial suspension.
Orfamide A, orfamide B, pyrrolnitrin, and pyoluteorin (Cayman Chemical Company, Ann Arbor, MI), and pyochelin (Santa Cruz Biotechnology, Dallas, TX), were diluted in 5% dimethyl sulfoxide (DMSO) at 1000 μg/mL and further diluted to 100 μg/mL and 10 μg/mL. Similarly, pyoverdine (Sigma-Aldrich, Saint Louis, MO) was diluted in water, whereas 2,4-DAPG (ThermoFisher Scientific, Poland) and fengycin (Sigma-Aldrich, Saint Louis, MO) were diluted in 5% ethanol at 1000 μg/mL and further diluted to 100 μg/mL and 10 μg/mL.
Burkholderia glumae grown on KB was scraped from the agar and resuspended in sterile water to a final OD600 of 0.2. One hundred microliters of B. glumae was added to 200 μL of KB broth to make a master mix. The master mix was supplemented with either water, 5% DMSO, or 5% ethanol, used as control. Alternatively, master mix was supplemented with either P. protegens PBL3 secretome or different compounds (orfamide A, orfamide B, fengycin, pyrrolnitrin, pyochelin, pyoverdine, 2,4-DAPG, or pyoluteorin), each at three concentrations of 1000 μg/mL, 100 μg/mL, and 10 μg/mL, or combination of compounds. Two compound combinations were chosen, the first combination consisted of 2,4-DAPG and pyoluteorin at final concentrations of 100 μg/mL and 10 μg/mL, respectively. The second combination consisted of 2,4-DAPG and pyoluteorin, each at concentration of 10 μg/mL. […] The growth of B. glumae was evaluated by measuring the OD600 using a spectrophotometer (Genesys 140, Thermoscientific, Madison, WI, USA). Each experiment was replicated three times.

[2] = at the three concentrations 10 μg/mL, 100 μg/mL, 1000 μg/mL
[3] = compound at 1000 μg/mL, 18 hours, FIG. 2
[4] = at a concentration of 1000 μg/mL
[5] = other concentrations than 1000 μg/mL (100 μg/mL, 10 μg/mL), FIG. 2
[6] = compound at 100 μg/mL, 18 hours, FIG. 2

| Compound | reduction of B. glumae populations in rice panicles [1] | BPB symptoms in rice panicles (in words) [1] | reduction in B. glumae growth (Burkholderia glumae; 2,4-DAPG at 100 μg/mL alone or with pyoluteorin at 10 μg/mL, 18 hours, FIG. 7) | effect on growth of B. glumae (in words) (Burkholderia glumae; [2]) | reduction of growth of B. glumae (Burkholderia glumae; [3]) | minimum inhibitory concentration needed for reduction of B. glumae growth in vitro (Burkholderia glumae) | effect on growth of B. glumae (in words) (Burkholderia glumae; [4]) | effect on growth of B. glumae (in words) (Burkholderia glumae; [5]) | reduction of growth of B. glumae (Burkholderia glumae; [6]) | growth of B. glumae (in words) (Burkholderia glumae; FIG. 2) |
| --- | --- | --- | --- | --- | --- | --- | --- | --- | --- | --- |
| CC(=O)c1c(O)cc(O)c(C(C)=O)c1O [2,4-DAPG, 2,4-diacetylphloroglucinol] | 1.17 logs | showed reduction of symptoms | 45% | inhibits B. glumae; also recorded: significantly reduced the growth of B. glumae | 93% | 100 mg/L | – | – | – | – |
| CN1[C@@H]([C@H]2CSC(c3ccccc3O)=N2)SC[C@H]1C(=O)O [pyochelin] | No changes in B. glumae populations | showed reduction of symptoms | – | – | 40% | 1000 mg/L | inhibits B. glumae | did not have any effect | – | – |
| O=C(c1cc(Cl)c(Cl)[nH]1)c1c(O)cccc1O [pyoluteorin] | 1.5 logs | showed reduction of symptoms | – | inhibits B. glumae; also recorded: significantly reduced the growth of B. glumae | 97% | 100 mg/L | – | – | 97% | – |
| O=[N+]([O-])c1c(Cl)cccc1-c1c[nH]cc1Cl [pyrrolnitrin] | – | – | – | – | 25% | 1000 mg/L | inhibits B. glumae | did not have any effect | – | – |
| Orfamide A | – | – | – | – | – | – | – | – | – | did not reduce the growth of B. glumae |
| fengycin | – | – | – | – | – | – | – | – | – | did not reduce the growth of B. glumae |
| orfamide B | – | – | – | – | – | – | – | – | – | did not reduce the growth of B. glumae |
| pyoverdine | No changes in B. glumae populations | – | – | inhibits B. glumae | ~80% | 100 mg/L | – | – | ~80% | – |
